Assay results published in patent US11617729B2 (priority 2019, dated 2023).

How the values were obtained:
liver cancer cells Huh7 [1] = experiment: Inhibition of fluorescently labeled DNA uptake by liver cancer cells; type: cell-based; details: then labeled DNA for 8 hours
Method: 1.8 KB of AFP (alpha feto protein) DNA is obtained through PCR (polymerase chain reaction), extracted with phenol-chloroform and adjusted to a concentration of 1 μg/mL. 5 μg of DNA is taken, and Rhodamine (fluorescent marker) is added. The mixture is allowed to stand at 37° C. for 1 hour, and purified in a G-50 Sephadex (purification column).
1640 medium is taken, and FBS (fetal bovine serum) is added, wherein the mass of FBS (fetal bovine serum) is 10% of that of 1640 medium. Put the mixture aside.
Eight groups of liver cancer cells Huh7 are inoculated into a 1640 medium respectively containing 10% FBS (fetal bovine serum) and cultured at 37° C. for 12 hours in an incubator containing 5% CO2.
Cells obtained through culture are rinsed 3 times with PBS and fixed with 4% formalin. The cells fixed as described above are photographed with a fluorescence microscope. […] The concentration of T3 is: 0 ng/mL, 1 ng/mL, 50 ng/mL and 100 ng/mL respectively.

liver cancer cells Huh7 [2] = experiment: Inhibition of liver cancer cell proliferation (CellTiter 96 AQueous One Solution); type: cell-based; details: 72 hours, 490 nm absorbance
Method: (§1) Liver cells LO2 and liver cancer cells Huh7 are inoculated into a 1640 medium containing 10% FBS (fetal bovine serum) respectively, and cultured at 37° C. for 12 hours in an incubator containing 5% CO2. […] The CellTiter 96® AQueous One Solution kit is used to determine the cells. 20 μL of analytical reagents are added and readings are taken at 490 nm absorbance.

liver cells LO2 = experiment: Proliferation of liver cells (CellTiter 96 AQueous One Solution); type: cell-based; details: 72 hours, 490 nm absorbance
Method: as §1

[3] = system: H22 mouse liver cancer cells; experiment: Inhibition of the growth of mouse liver cancer tumors; type: in vivo, Kunming mice; details: for Inhibition rate (ninth day): vs normal saline group, hydrochloride; for tumor volume, Ninth day / tumor volume, Sixth day / tumor volume, Third day: H22 tumors in Kunming mice
Method: Preparation of tumor cell suspension: H22 mouse liver cancer cells are inoculated into a 1640 medium containing 10% FBS (fetal bovine serum), and cultured at 37° C. for 12 h in an incubator containing 5% CO2. When the cells grow to the logarithmic phase, the above medium is prepared into a cell suspension, and the concentration of H22 mouse liver cancer cells is controlled to 1×10^6 cells/mL to obtain the tumor cell suspension for later use.
Building of animal tumor model: 30 SPF grade Kunming mice, male and (20±2) g, are taken. […] The right armpit skin of mice in each group is disinfected with alcohol, and 0.2 mL of the above tumor cell suspension is drawn with a 1 mL syringe, and inoculated into the disinfected part of the mice by slow hypodermic injection. All mice are given sufficient water and feed, the litter is kept dry and the tumor growth of the mice is observed. Generally, 7 days after modeling, obvious tumor nodules can be felt under the armpits of the mice, which means that the modeling was successful.

[4] = system: LLC lung cancer cell strains; experiment: Inhibition of the growth of mouse lung cancer tumors; type: in vivo, CK57BL mice; details: for Inhibition rate on the seventh day: 480 mg/kg intraperitoneally once a day for 7 days, vs normal saline group, hydrochloride
Method: Preparation of tumor cell suspension: LLC lung cancer cell strains are inoculated into a DMEM medium containing 10% FBS (fetal bovine serum), and cultured at 37° C. for 12 h in an incubator containing 5% CO2. When the cells grow to the logarithmic phase, the above medium is prepared into a cell suspension, and the concentration is 1×10^6 cells/mL to obtain the lung cancer cell suspension for later use.
Building of animal tumor model: 20 SPF grade CK57BL mice, male and (20±2) g, are taken. The above mice are kept in a laboratory without particular pathogens. The right armpit skin of the mice is disinfected with alcohol, and 0.2 mL of the above tumor cell suspension is drawn with a 1 mL syringe, and inoculated into the disinfected part of the mice by slow hypodermic injection. All mice are given sufficient water and feed, the litter is kept dry and the tumor growth of the mice is observed. Generally, about 10 days after modeling, obvious tumor nodules can be felt under the armpits of the mice, which means that the modeling was successful.

[5] = high-dose, 480 mg/kg intraperitoneally twice a day
[6] = low-dose, 240 mg/kg intraperitoneally twice a day
[7] = 480 mg/kg intraperitoneally once a day, LLC tumors in CK57BL mice

Row | Compound | uptake of fluorescently labeled DNA by liver cancer cells (liver cancer cells Huh7 [1]; 0, 1, 25, 50 mmol/L guanidine hydrochloride for 24 hours, fluorescence microscope) | growth of cancer cells Huh7 (liver cancer cells Huh7 [2]; 6 mmol/L) | growth of cancer cells Huh7 (liver cancer cells Huh7 [2]; 20 mmol/L) | growth of liver cells LO2 (liver cells LO2; 6 mmol/L) | growth of liver cells LO2 (liver cells LO2; 20 mmol/L) | Inhibition rate (ninth day) ([3]; high-dose, 480 mg/kg intraperitoneally twice a day for 9 days, 480 mg/kg) [%] | tumor volume, Ninth day [3, 5] [cm^3] | tumor volume, Sixth day [3, 5] [cm^3] | tumor volume, Third day [3, 5] [cm^3] | Inhibition rate (ninth day) ([3]; low-dose, 240 mg/kg intraperitoneally twice a day for 9 days, 240 mg/kg) [%] | tumor volume, Ninth day [3, 6] [cm^3] | tumor volume, Sixth day [3, 6] [cm^3] | tumor volume, Third day [3, 6] [cm^3] | Inhibition rate on the seventh day [4] [%] | Inhibition rate on the seventh day ([4]; listed as Guanidine hydrochloride) [%] | tumor volume, First day [4, 7] [cm^3] | tumor volume, Seventh day [4, 7] [cm^3] | tumor volume, Third day [4, 7] [cm^3] | uptake of fluorescently labeled DNA by liver cancer cells (liver cancer cells Huh7 [1]; control groups with 0, 1, 50, 100 ng/mL T3 for 24 hours)
1 | guanidine hydrochloride | significantly inhibit the uptake of DNA | begins to significantly inhibit | significantly inhibited | does not affect the growth | significantly inhibited | 42 | 2.37 | 1.47 | 0.54 | 24 | 3.11 | 2.16 | 0.55 | 56.8 | 56.8 | 0.43 | 1.8 | 0.92 | 
2 | N[C@@H](Cc1cc(I)c(Oc2ccc(O)c(I)c2)c(I)c1)C(=O)O [triiodothyronine] |  |  |  |  |  |  |  |  |  |  |  |  |  |  |  |  |  |  | do not affect the uptake
